Reference: ChEMBL document CHEMBL5360623, “Principles and Applications of CF2X Moieties as Unconventional Halogen Bond Donors in Medicinal Chemistry, Chemical Biology, and Drug Discovery” (J Med Chem, 2023)

Experiments:
[1] = target: Mitogen-activated protein kinase 8 (Homo sapiens, UniProt P45983); test: Binding affinity to JNK1 (2 to 364 residues) (unknown origin) expressed in Escherichia coli BL21(DE3) assessed as dissociation constant by isothermal titration calorimetry assay
[2] = target: Mitogen-activated protein kinase 10 (Homo sapiens, UniProt P53779); test: Binding affinity to JNK3 (39 to 402 residues) (unknown origin) expressed in Escherichia coli BL21(DE3) assessed as dissociation constant by isothermal titration calorimetry assay
[3] = Stability of the compound in PBS buffer assessed as half life at 250 uM at pH 7.4 in presence of GSH by HPLC analysis; type: physicochemical; conditions: pH 7.4, 250 µM

Sequence of Mitogen-activated protein kinase 10 (P53779 whole entry, the tested form may be a part): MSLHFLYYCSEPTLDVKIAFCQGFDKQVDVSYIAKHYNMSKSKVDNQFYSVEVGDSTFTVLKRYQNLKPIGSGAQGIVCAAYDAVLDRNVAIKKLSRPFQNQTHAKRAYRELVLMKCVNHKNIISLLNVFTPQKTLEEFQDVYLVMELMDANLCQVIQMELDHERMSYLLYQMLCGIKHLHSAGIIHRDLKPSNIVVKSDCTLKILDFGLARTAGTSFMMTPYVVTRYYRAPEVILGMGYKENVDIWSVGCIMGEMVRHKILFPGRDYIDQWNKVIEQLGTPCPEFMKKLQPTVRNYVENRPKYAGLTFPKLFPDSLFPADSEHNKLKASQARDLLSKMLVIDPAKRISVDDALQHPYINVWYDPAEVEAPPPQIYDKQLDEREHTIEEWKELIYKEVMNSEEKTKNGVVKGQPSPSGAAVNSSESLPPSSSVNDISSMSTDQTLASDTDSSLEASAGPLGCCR
Sequence of Mitogen-activated protein kinase 8 (P45983 whole entry, the tested form may be a part): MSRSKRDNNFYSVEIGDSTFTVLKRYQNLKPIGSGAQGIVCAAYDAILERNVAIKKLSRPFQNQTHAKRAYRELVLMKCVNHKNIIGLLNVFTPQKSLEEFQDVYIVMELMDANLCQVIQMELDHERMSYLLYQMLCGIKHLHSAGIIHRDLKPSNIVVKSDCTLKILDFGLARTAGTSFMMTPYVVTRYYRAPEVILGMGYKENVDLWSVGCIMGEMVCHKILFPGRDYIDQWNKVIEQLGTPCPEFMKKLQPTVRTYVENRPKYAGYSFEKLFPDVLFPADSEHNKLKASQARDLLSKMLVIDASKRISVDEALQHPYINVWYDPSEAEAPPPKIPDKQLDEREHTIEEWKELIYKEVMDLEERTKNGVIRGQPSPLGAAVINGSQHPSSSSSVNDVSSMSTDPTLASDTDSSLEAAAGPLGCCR

Row | Structure (SMILES) | Kd ([1]; read-out: Kd) | Kd [2] | Kd ([2]; read-out: Kd) | Kd [1] | t1/2 [3]
1 | Nc1nnc(-c2ccncc2)s1 | 162 µM | Not Active | – | – | –
2 | O=C(Nc1nncs1)C(F)(F)I | 104 µM | – | 186 µM | – | –
3 | O=C(c1cnc2ccccn12)C(F)(F)Cl | > 1000 µM | – | > 1000 µM | – | –
4 | O=C(Nc1ccc2c(c1)OCO2)C(F)(F)Cl | – | – | > 1000 µM | Not Active | 10.8 days
5 | COC(=O)c1scc(C)c1NC(=O)C(F)(F)Cl | – | Not Active | – | Not Active | –
6 | CCOC(=O)c1cnn(C)c1NC(=O)C(F)(F)Cl | – | Not Active | – | Not Active | –
7 | O=C(Nc1nccs1)C(F)(F)Br | > 1000 µM | – | > 1000 µM | – | –
8 | NC(=O)Nc1ccc(OC(F)(F)I)cc1 | – | – | – | – | 0.3 days
9 | O=C(Nc1nnc(-c2ccncc2)s1)C(F)(F)Br | 15 µM | – | 17 µM | – | –
10 | O=C(Nc1ccc(F)cc1)C(F)(F)Br | – | Not Active | – | Not Active | –
11 | NC(=O)Nc1ccc(OC(F)(F)Cl)cc1 | – | – | – | – | > 50 days
12 | O=C(Nc1ccc(O)c(O)c1)C(F)(F)Cl | – | Not Active | – | Not Active | –
13 | O=C(Nc1nncs1)C(F)(F)Br | 193 µM | – | 248 µM | – | –
14 | O=C(Nc1nncs1)C(F)(F)Cl | 186 µM | – | 243 µM | – | –
15 | NC(=O)Nc1ccc(OC(F)(F)F)cc1 | – | – | – | – | > 50 days
16 | O=C(Nc1ccc2c(c1)OCO2)C(F)(F)Br | > 1000 µM | – | > 1000 µM | – | 11.7 days

Continued, values first:

Row | Kd ([1]; read-out: Kd) | Kd [2] | Kd ([2]; read-out: Kd) | Kd [1] | t1/2 [3] | Structure (SMILES)
17 | – | – | – | – | > 50 days | O=C(Nc1ccc2c(c1)OCO2)C(F)F
18 | – | – | – | – | 0.221 days | NC(=O)Nc1ccc(OC(F)(F)Br)cc1
19 | – | Not Active | – | Not Active | 12.1 days | O=C(Nc1ccc2c(c1)OCO2)C(F)(F)I
20 | – | – | – | – | > 50 days | NC(=O)Nc1ccc(OC(F)F)cc1
21 | – | Not Active | – | Not Active | – | NC(=O)Nc1ccc(NC(=O)C(F)(F)Br)cc1
22 | – | Not Active | – | Not Active | – | CCOC(=O)c1c(NC(=O)C(F)(F)Br)sc2c1CCCC2
23 | – | Not Active | – | Not Active | – | O=C(NCCc1c[nH]c2ccccc12)C(F)(F)Cl
24 | 10 µM | – | 13 µM | – | – | O=C(Nc1nnc(-c2ccncc2)s1)C(F)(F)I
25 | – | – | – | – | 5.42 days | O=C(Nc1ccc2c(c1)OCO2)C(F)(F)F
26 | 20 µM | – | 23 µM | – | – | O=C(Nc1nnc(-c2ccncc2)s1)C(F)(F)Cl
27 | – | Not Active | – | Not Active | – | O=C(Nc1cccc2nsnc12)C(F)(F)Br
28 | – | Not Active | – | Not Active | – | O=C(Nc1ccc(Cn2cncn2)cc1)C(F)(F)Br
29 | – | Not Active | – | Not Active | – | O=C(Nc1nnc(-c2ccc([N+](=O)[O-])cc2)o1)C(F)(F)Br
30 | – | Not Active | – | Not Active | – | O=C(c1ccco1)N1CCN(C(=O)C(F)(F)Br)CC1
